{"source": "patent US6197926A", "about": "“Methods for treatment of diabetes using peptide analogues of insulin” (Neurocrine Biosciences, priority 1999, dated 2001)", "assay_in_all_cases": "Proliferation of insulin-specific NOD T cell clone", "format_in_all_cases": "cell-based, mouse", "details_in_all_cases": "50 μg/ml peptide, 72 hours", "key": {"T cell clone PD12-4.34": {"system": "T cell clone PD12-4.34", "procedure": "(§1) Insulin specific NOD T cell lines were established by culturing lymphocytes isolated from islet-infiltrating populations by in vitro stimulation with either porcine insulin at 25 μg/ml and irradiated NOD islet cells in the presence of irradiated NOD spleen cells as antigen presenting cells and cytokines. To obtain the infiltrating lymphocytes the following procedures were performed (see WeLimann et al., Eur. J. Immunol. 24:1853, 1994): the pancreas from the NOD mouse was digested with collatenase and individual islets were isolated manually. The infiltrating lymphocytes were then obtained by mild trypsin digestion of the islets. The insulin specific T cell lines or clones were propagated by serial stimulation in the presence of NOD spleen cells, porcine insulin and lymphokines. Clones were obtained by limiting dilution of the B chain (9-23) specific T cell lines in the presence of the antigen presenting cells and porcine insulin at 25 μg/ml. Wells with a growing population of cells following limiting dilution were expanded in appropriate medium, and after one cycle of growth were tested for reactivity to the B chain (9-23) peptide of insulin by evaluating the proliferative response.\n(§2) Insulin B chain (9-23) (SEQ ID NO:2) specific mouse (NOD) T cell clones were isolated from infiltrated islets as described in Example 2. Peptide analogues with single alanine substitutions were prepared as described in Example 1. The effect of each analogue on T cell prolircration was then evaluated using an assay performed in 96-well flat bottom microtiter plates (see Daniel et al., Eur. J. Immunol. 25 :1056, 1995). Briefly 25,000 T cell clones along with 1 million irradiated NOD spleen cells were cultured in the presence of 50 μg/ml of insulin B chain 9-23 peptide or any of the alanine substituted peptides listed below in triplicate sets. The plates were incubated for a total of 72 hours in 7% carbon dioxide atmosphere with a pulse of 1 μCi/well of tritiated thymidine for the last 6-8 hours of culture. Cells were harvested on a glass fiber filter and the associated radioactivity was counted in a liquid scintillation counter. Results are expressed as mean counts per minute of triplicate wells."}, "T cell clone PD12-4.4": {"system": "T cell clone PD12-4.4", "procedure": "as §1, §2"}, "T cell clone PD12-4.29": {"system": "T cell clone PD12-4.29", "procedure": "as §1, §2"}, "T cell clone PD6-4.3": {"system": "T cell clone PD6-4.3", "procedure": "as §1, §2"}, "T cell clone PD12-2.40": {"system": "T cell clone PD12-2.40", "procedure": "as §1, §2\nNOD T cell clones were incubated in the presence of 50 μM of either the native B chain (9-23) peptide or NBI-6024. The data in Table 3 represent the mean of triplicate sample±standard error of the mean. Within Table 3, S.I. (Stimulation Index)=proliferation (cpm) in the presence of the peptide/proliferation (cpm) in medium alone."}}, "data": [{"substance": "Modified Position 11: insulin B chain (9-23) peptide analogue with native residue L at position 11 substituted with alanine", "values": [{"measurement": "Response (cpm)", "setting": "T cell clone PD12-4.34", "value": 190, "unit": "cpm"}, {"measurement": "Response (cpm)", "setting": "T cell clone PD12-4.4", "value": 474, "unit": "cpm"}, {"measurement": "Response (cpm)", "setting": "T cell clone PD12-4.29", "value": 18416, "unit": "cpm"}, {"measurement": "Response (cpm)", "setting": "T cell clone PD6-4.3", "value": 14148, "unit": "cpm"}, {"measurement": "Response (cpm)", "setting": "T cell clone PD12-2.40", "value": 2594, "unit": "cpm"}]}, {"substance": "Modified Position 10: insulin B chain (9-23) peptide analogue with native residue H at position 10 substituted with alanine", "values": [{"measurement": "Response (cpm)", "setting": "T cell clone PD12-4.34", "value": 356, "unit": "cpm"}, {"measurement": "Response (cpm)", "setting": "T cell clone PD12-4.4", "value": 823, "unit": "cpm"}, {"measurement": "Response (cpm)", "setting": "T cell clone PD12-4.29", "value": 15484, "unit": "cpm"}, {"measurement": "Response (cpm)", "setting": "T cell clone PD6-4.3", "value": 12507, "unit": "cpm"}, {"measurement": "Response (cpm)", "setting": "T cell clone PD12-2.40", "value": 1409, "unit": "cpm"}]}, {"substance": "Modified Position 19: insulin B chain (9-23) peptide analogue with native residue C at position 19 substituted with alanine", "values": [{"measurement": "Response (cpm)", "setting": "T cell clone PD12-4.34", "value": 689, "unit": "cpm"}, {"measurement": "Response (cpm)", "setting": "T cell clone PD12-4.4", "value": 4295, "unit": "cpm"}, {"measurement": "Response (cpm)", "setting": "T cell clone PD12-4.29", "value": 6054, "unit": "cpm"}, {"measurement": "Response (cpm)", "setting": "T cell clone PD6-4.3", "value": 7678, "unit": "cpm"}, {"measurement": "Response (cpm)", "setting": "T cell clone PD12-2.40", "value": 34212, "unit": "cpm"}]}, {"substance": "Modified Position 20: insulin B chain (9-23) peptide analogue with native residue G at position 20 substituted with alanine", "values": [{"measurement": "Response (cpm)", "setting": "T cell clone PD12-4.34", "value": 466, "unit": "cpm"}, {"measurement": "Response (cpm)", "setting": "T cell clone PD12-4.4", "value": 1323, "unit": "cpm"}, {"measurement": "Response (cpm)", "setting": "T cell clone PD12-4.29", "value": 13736, "unit": "cpm"}, {"measurement": "Response (cpm)", "setting": "T cell clone PD6-4.3", "value": 2440, "unit": "cpm"}, {"measurement": "Response (cpm)", "setting": "T cell clone PD12-2.40", "value": 38685, "unit": "cpm"}]}, {"substance": "Modified Position 23: insulin B chain (9-23) peptide analogue with native residue G at position 23 substituted with alanine", "values": [{"measurement": "Response (cpm)", "setting": "T cell clone PD12-4.34", "value": 791, "unit": "cpm"}, {"measurement": "Response (cpm)", "setting": "T cell clone PD12-4.4", "value": 3228, "unit": "cpm"}, {"measurement": "Response (cpm)", "setting": "T cell clone PD12-4.29", "value": 18422, "unit": "cpm"}, {"measurement": "Response (cpm)", "setting": "T cell clone PD6-4.3", "value": 14304, "unit": "cpm"}, {"measurement": "Response (cpm)", "setting": "T cell clone PD12-2.40", "value": 75441, "unit": "cpm"}]}, {"substance": "Modified Position 21: insulin B chain (9-23) peptide analogue with native residue E at position 21 substituted with alanine", "values": [{"measurement": "Response (cpm)", "setting": "T cell clone PD12-4.34", "value": 773, "unit": "cpm"}, {"measurement": "Response (cpm)", "setting": "T cell clone PD12-4.4", "value": 7900, "unit": "cpm"}, {"measurement": "Response (cpm)", "setting": "T cell clone PD12-4.29", "value": 4904, "unit": "cpm"}, {"measurement": "Response (cpm)", "setting": "T cell clone PD6-4.3", "value": 91, "unit": "cpm"}, {"measurement": "Response (cpm)", "setting": "T cell clone PD12-2.40", "value": 39087, "unit": "cpm"}]}, {"substance": "Modified Position 22: insulin B chain (9-23) peptide analogue with native residue R at position 22 substituted with alanine", "values": [{"measurement": "Response (cpm)", "setting": "T cell clone PD12-4.34", "value": 1555, "unit": "cpm"}, {"measurement": "Response (cpm)", "setting": "T cell clone PD12-4.4", "value": 1313, "unit": "cpm"}, {"measurement": "Response (cpm)", "setting": "T cell clone PD12-4.29", "value": 12635, "unit": "cpm"}, {"measurement": "Response (cpm)", "setting": "T cell clone PD6-4.3", "value": 6555, "unit": "cpm"}, {"measurement": "Response (cpm)", "setting": "T cell clone PD12-2.40", "value": 51722, "unit": "cpm"}]}]}
